33 compounds from patent US11753403B2, “EIF4E inhibitors and uses thereof” (PIC Therapeutics, Inc., priority 2020, dated 2023) can be followed below.

For this assay, the target named is Human eIF4E (aa 28-217) / biotin labeled 4G2 peptide (Homo sapiens (Human), UniProt P06730). Put plainly: Human eIF4E/4G2 binding assay (TR-FRET). The settings on record: Human eIF4E/4G2 TR-FRET binding assay; head says IC50, legend says EC50. In a few lines: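 Refolded His-tagged human eIF4E (aa 28-217), 82.5 nM working stock, preincubated 4 h at RT with compounds (10-point 2-fold series) in NaPi pH 6.5 buffer with DTT and gamma globulin. Biotin-4G2 peptide then added for 20 min, followed by Eu-streptavidin/APC-anti-His for 20 min; TR-FRET 665/615 nm ratio normalized, IC50 fitted.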
Chain of Human eIF4E (aa 28-217) / biotin labeled 4G2 peptide (P06730 28-217): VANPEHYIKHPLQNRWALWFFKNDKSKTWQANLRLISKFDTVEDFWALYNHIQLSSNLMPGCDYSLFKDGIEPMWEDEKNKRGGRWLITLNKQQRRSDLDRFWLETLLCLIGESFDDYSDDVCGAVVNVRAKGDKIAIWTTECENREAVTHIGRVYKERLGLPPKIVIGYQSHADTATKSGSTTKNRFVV
As to `C=Cc1sc(N(CCC(=O)O)Cc2ccccc2)nc1-c1ccc(Cl)c(Cl)c1` [I-129, 3-(benzyl(4-(3,4-dichlorophenyl)-5-vinylthiazol-2-yl)amino)propanoic acid], the 50% inhibitory concentration (IC50) lay in the range of 1 to 10 µM. The value for `CC(C)Cc1sc(Nc2cccc(C(=O)NCCN)c2)nc1-c1ccc(Cl)c(Cl)c1` [I-218, N-(2-aminoethyl)-3-(4-(3,4-dichlorophenyl)-5-isobutylthiazol-2-ylamino)benzamide] was above 10 µM; that for `CC(C)Cc1sc(N2CCN(C(=O)OC(C)C)C(C(=O)O)C2)nc1-c1ccc(Cl)c(Cl)c1` (stereo not drawn) [I-253, 4-(4-(3,4-dichlorophenyl)-5-isobutylthiazol-2-yl)-1-(isopropoxycarbonyl)piperazine-2-carboxylic acid] was 1 to 10 µM. The value for `CC(C)Cc1sc(NCC(Cc2ccc(S(N)(=O)=O)cc2)C(=O)O)nc1-c1ccc(Cl)c(Cl)c1` (stereo not drawn) [I-176] was 1 to 10 µM; that for `CC(C)Cc1sc(N(CCC(=O)NCC(=O)O)Cc2ccccc2)nc1-c1ccc(Cl)c(Cl)c1` [I-196] was 1 to 10 µM. In turn, `CCOC(=O)N1CCN(c2nc(-c3ccc(Cl)c(Cl)c3)c(CC(C)C)s2)CC1C(=O)O` (stereo not drawn) [I-245, 4-(4-(3,4-dichlorophenyl)-5-isobutylthiazol-2-yl)-1-(ethoxycarbonyl)piperazine-2-carboxylic acid] yielded a half-maximal inhibitory concentration (IC50) of 1 to 10 µM. The result for `CC(C)Cc1sc(NCC(NC(=O)OCc2ccccc2)C(=O)O)nc1-c1ccc(Cl)c(Cl)c1` (stereo not drawn) [I-138, 2-(benzyloxycarbonylamino)-3-(4-(3,4-dichlorophenyl)-5-isobutylthiazol-2-ylamino) propanoic acid] reads at most 1 µM. The result for `CC(C)Cc1sc(N(CCC(=O)O)Cc2ccccc2)nc1-c1ccc(Cl)c(Cl)c1` [I-47, 3-(benzyl(4-(3,4-dichlorophenyl)-5-isobutylthiazol-2-yl)amino)propanoic acid] reads at most 1 µM; that for `CC(C)c1sc(NCC(Cc2ccc3[nH]ccc3c2)C(=O)O)nc1-c1ccc(Cl)c(Cl)c1` (stereo not drawn) [I-10], 1 to 10 µM. The result for `CC(C)Cc1sc(N(CCC(=N)N)Cc2ccccc2)nc1-c1ccc(Cl)c(Cl)c1` [I-230, 3-(benzyl(4-(3,4-dichlorophenyl)-5-isobutylthiazol-2-yl)amino)propanimidamide] reads above 10 µM. `Cc1ncccc1CC(CNc1nc(-c2ccc(Cl)c(Cl)c2)c(CC(C)C)s1)C(=O)O` (stereo not drawn) [I-156] yielded an IC50 of 1 to 10 µM.

Compound `CC(C)Cc1sc(N(CCC(=O)O)Cc2ccccc2O)nc1-c1ccc(Cl)c(Cl)c1` [I-50] came in with an IC50 of 1 to 10 µM. The compound `COc1cccc(-c2nc(NCC(Cc3ccccc3OC)C(=O)O)sc2C(C)C)c1` (stereo not drawn) [I-30] yielded an IC50 of 1 to 10 µM. In turn, `CC(C)Cc1sc(N(CCC(=O)O)CC2CCN(C)CC2)nc1-c1ccc(Cl)c(Cl)c1` [I-88] registered an IC50 above 10 µM. `O=C(O)CCN(Cc1ccccc1)c1nc(-c2ccc(Cl)c(Cl)c2)c(C2CC2)s1` [I-56] yielded an IC50 of 1 to 10 µM. The value for `CC(C)Cc1sc(NCC(Cc2ccc(N)nc2)C(=O)O)nc1-c1ccc(Cl)c(Cl)c1` (stereo not drawn) [I-153] was above 10 µM. The result for `CC(C)Cc1sc(Nc2cccnc2C(=O)O)nc1-c1ccc(Cl)c(Cl)c1` [I-234, 3-(4-(3,4-dichlorophenyl)-5-isobutylthiazol-2-ylamino)picolinic acid] reads 1 to 10 µM; that for `Cc1noc(CN(CCC(=O)O)c2nc(-c3ccc(Cl)c(Cl)c3)c(CC(C)C)s2)n1` [I-68], 1 to 10 µM. Consider `CC(C)Cc1sc(N(CCC(=O)O)Cc2ccccc2Cl)nc1-c1ccc(Cl)c(Cl)c1` [I-108], for which the IC50 is at most 1 µM.

Compound `CC(C)c1sc(Nc2ncccc2C(=N)N)nc1-c1ccc(Cl)c(Cl)c1` [I-284, 2-(4-(3,4-dichlorophenyl)-5-isopropylthiazol-2-ylamino)nicotinimidamide] registered a half-maximal inhibitory concentration (IC50) above 10 µM. With `CC(C)Cc1sc(N(CC(=N)N)Cc2ccccc2)nc1-c1ccc(Cl)c(Cl)c1` [I-231, 2-(benzyl(4-(3,4-dichlorophenyl)-5-isobutylthiazol-2-yl)amino)acetimidamide], the IC50 was above 10 µM. The value for `CC(C)Cc1sc(NCC(Cc2ccc(N(C)C)nc2)C(=O)O)nc1-c1ccc(Cl)c(Cl)c1` (stereo not drawn) [I-154] was 1 to 10 µM; that for `Cc1cc(CC(CNc2nc(-c3ccc(Cl)c(Cl)c3)c(CC(C)C)s2)C(=O)O)ccn1` (stereo not drawn) [I-151] was 1 to 10 µM; that for `CC(=O)NC(CNc1nc(-c2ccc(Cl)c(Cl)c2)c(CC(C)C)s1)C(=O)O` (stereo not drawn) [I-140] was above 10 µM. The value for `CC(C)Cc1sc(NCC(Cc2ccncn2)C(=O)O)nc1-c1ccc(Cl)c(Cl)c1` (stereo not drawn) [I-161] was 1 to 10 µM; that for `CC(C)c1sc(NCC(Cc2ccccc2)C(=O)O)nc1-c1ccc(Cl)c(Cl)c1` (stereo not drawn) [I-1, 2-benzyl-3-(4-(3,4-dichlorophenyl)-5-isopropylthiazol-2-ylamino)propanoic acid] was at most 1 µM; that for `CC(C)Cc1sc(N(CCC(=O)O)C(=O)c2ccccc2)nc1-c1ccc(Cl)c(Cl)c1` [I-144] was 1 to 10 µM. For the compound `CC(C)Cc1sc(-c2cccc(C(=O)O)n2)nc1-c1ccc(Cl)c(Cl)c1` [I-228, 6-(4-(3,4-dichlorophenyl)-5-isobutylthiazol-2-yl)picolinic acid], the IC50 lay in the range of 1 to 10 µM.

`COc1cccc(-c2nc(NCC(Cc3cccc4c3OCO4)C(=O)O)sc2C(C)C)c1` (stereo not drawn) [I-29]: the half-inhibitory concentration (IC50) fell in the range of 1 to 10 µM. The value for `CC(C)Cc1sc(N(CCC(=O)O)Cc2cccc3[nH]ccc23)nc1-c1ccc(Cl)c(Cl)c1` [I-53, 3-(((1H-indol-4-yl)methyl)(4-(3,4-dichlorophenyl)-5-isobutylthiazol-2-yl)amino)propanoic acid] was 1 to 10 µM; that for `CC(C)Cc1sc(N(CCC(=O)O)Cc2ccccc2)nc1-c1ccncc1` [I-84] was above 10 µM.

In the case of `CC(C)Cc1sc(-c2cc(C(=O)O)c(F)cn2)nc1-c1ccc(Cl)c(Cl)c1` [I-240], the 50% inhibitory concentration (IC50) was in the range of 1 to 10 µM. `CC(C)Cc1sc(Nc2ncc(-c3cccs3)cc2C(=O)O)nc1-c1ccc(OCC2CC2)c(Cl)c1` [I-332]: the IC50 was at most 1 µM.
